Results as given in US11718604B2, “4-amino-6-(1,3-benzodioxole)picolinates and their use as herbicides” (Dow AgroSciences LLC, priority 2018, dated 2023).

Columns and labels:
Format in all cases: in vivo
[1] = tested on: IPOHE: ivyleaf morningglory (Ipomoea hederacea); assay: Post-emergent herbicidal test, ivyleaf morningglory; conditions: post-emergence, 336 h, 14 days after application, read-out: Visual Growth Reduction (%) 14 Days After Application IPOHE; for pest or weed control at 17.5 g/ha: 17.5 g ai/ha; for pest or weed control at 35 g/ha: 35 g ai/ha; for pest or weed control at 70 g/ha: 70 g ai/ha; for pest or weed control at 140 g/ha: 140 g ai/ha
Procedure, shortened: (§1)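 Plants are raised in potting mix of pH 6.0 to 6.8 in a greenhouse until the first or second true leaf, then sprayed with formulated compound at 187 L/ha at several rates (½× to 1/16× of the top rate). After 14 d, damage is rated visually as percent injury against untreated plants.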

[2] = tested on: CIRAR: Canada thistle (Cirsium arvense); assay: Post-emergent herbicidal test, Canada thistle; conditions: post-emergence, 336 h, 14 days after application, read-out: Visual Growth Reduction (%) 14 Days After Application CIRAR; for pest or weed control at 17.5 g/ha: 17.5 g ai/ha; for pest or weed control at 35 g/ha: 35 g ai/ha; for pest or weed control at 70 g/ha: 70 g ai/ha; for pest or weed control at 140 g/ha: 140 g ai/ha
Procedure, shortened: as §1

[3] = tested on: DIGSA: large crabgrass (Digitaria sanguinalis); assay: Post-emergent herbicidal test, large crabgrass; conditions: post-emergence, 336 h, 14 days after application, read-out: Visual Growth Reduction (%) 14 Days After Application DIGSA; for pest or weed control at 17.5 g/ha: 17.5 g ai/ha; for pest or weed control at 35 g/ha: 35 g ai/ha; for pest or weed control at 70 g/ha: 70 g ai/ha; for pest or weed control at 140 g/ha: 140 g ai/ha
Procedure, shortened: as §1

[4] = tested on: EPHHL: wild poinsettia (Euphorbia heterophylla); assay: Post-emergent herbicidal test, wild poinsettia; conditions: post-emergence, 336 h, 14 days after application, read-out: Visual Growth Reduction (%) 14 Days After Application EPHHL; for pest or weed control at 17.5 g/ha: 17.5 g ai/ha; for pest or weed control at 35 g/ha: 35 g ai/ha; for pest or weed control at 70 g/ha: 70 g ai/ha; for pest or weed control at 140 g/ha: 140 g ai/ha
Procedure, shortened: as §1

[5] = tested on: CYPES: yellow nutsedge (Cyperus esculentus); assay: Post-emergent herbicidal test, yellow nutsedge; conditions: post-emergence, 336 h, 14 days after application, read-out: Visual Growth Reduction (%) 14 Days After Application CYPES; for pest or weed control at 17.5 g/ha: 17.5 g ai/ha; for pest or weed control at 35 g/ha: 35 g ai/ha; for pest or weed control at 70 g/ha: 70 g ai/ha; for pest or weed control at 140 g/ha: 140 g ai/ha
Procedure, shortened: as §1

[6] = tested on: ABUTH: velvetleaf (Abutilon theophrasti); assay: Post-emergent herbicidal test, velvetleaf; conditions: post-emergence, 336 h, 14 days after application, read-out: Visual Growth Reduction (%) 14 Days After Application ABUTH; for pest or weed control at 17.5 g/ha: 17.5 g ai/ha; for pest or weed control at 35 g/ha: 35 g ai/ha; for pest or weed control at 70 g/ha: 70 g ai/ha; for pest or weed control at 140 g/ha: 140 g ai/ha
Procedure, shortened: as §1

[7] = tested on: VIOTR: wild violet (Viola tricolor); assay: Post-emergent herbicidal test, wild violet; conditions: post-emergence, 336 h, 14 days after application, read-out: Visual Growth Reduction (%) 14 Days After Application VIOTR; for pest or weed control at 17.5 g/ha: 17.5 g ai/ha; for pest or weed control at 35 g/ha: 35 g ai/ha; for pest or weed control at 70 g/ha: 70 g ai/ha; for pest or weed control at 140 g/ha: 140 g ai/ha
Procedure, shortened: as §1

[8] = tested on: SETFA: giant foxtail (Setaria faberi); assay: Post-emergent herbicidal test, giant foxtail; conditions: post-emergence, 336 h, 14 days after application, read-out: Visual Growth Reduction (%) 14 Days After Application SETFA; for pest or weed control at 17.5 g/ha: 17.5 g ai/ha; for pest or weed control at 35 g/ha: 35 g ai/ha; for pest or weed control at 70 g/ha: 70 g ai/ha; for pest or weed control at 140 g/ha: 140 g ai/ha
Procedure, shortened: as §1

[9] = tested on: SORVU: shattercane (Sorghum bicolor); assay: Post-emergent herbicidal test, shattercane; conditions: post-emergence, 336 h, 14 days after application, read-out: Visual Growth Reduction (%) 14 Days After Application SORVU; for pest or weed control at 17.5 g/ha: 17.5 g ai/ha; for pest or weed control at 35 g/ha: 35 g ai/ha; for pest or weed control at 70 g/ha: 70 g ai/ha; for pest or weed control at 140 g/ha: 140 g ai/ha
Procedure, shortened: as §1

[10] = tested on: BRSNN: oilseed rape, canola (Brassica napus); assay: Post-emergent herbicidal test, oilseed rape; conditions: post-emergence, 336 h, 14 days after application, read-out: Visual Growth Reduction (%) 14 Days After Application BRSNN; for pest or weed control at 17.5 g/ha: 17.5 g ai/ha; for pest or weed control at 35 g/ha: 35 g ai/ha; for pest or weed control at 70 g/ha: 70 g ai/ha; for pest or weed control at 140 g/ha: 140 g ai/ha
Procedure, shortened: as §1

[11] = tested on: ECHCG: barnyardgrass (Echinochloa crus-galli); assay: Post-emergent herbicidal test, barnyardgrass; conditions: post-emergence, 336 h, 14 days after application, read-out: Visual Growth Reduction (%) 14 Days After Application ECHCG; for pest or weed control at 17.5 g/ha: 17.5 g ai/ha; for pest or weed control at 35 g/ha: 35 g ai/ha; for pest or weed control at 70 g/ha: 70 g ai/ha; for pest or weed control at 140 g/ha: 140 g ai/ha
Procedure, shortened: as §1

## COC(=O)c1nc(-c2ccc(F)c3c2OCO3)c(F)c(N)c1Cl [Compound 15]
[1]
  pest or weed control at 17.5 g/ha: 0%
  pest or weed control at 35 g/ha: 0%
  pest or weed control at 70 g/ha: 0%
  pest or weed control at 140 g/ha: 0%
[2]
  pest or weed control at 17.5 g/ha: 80%
  pest or weed control at 35 g/ha: 85%
  pest or weed control at 70 g/ha: 90%
  pest or weed control at 140 g/ha: 95%
[3]
  pest or weed control at 17.5 g/ha: 0%
  pest or weed control at 35 g/ha: 0%
  pest or weed control at 70 g/ha: 0%
  pest or weed control at 140 g/ha: 0%
[4]
  pest or weed control at 17.5 g/ha: 0%
  pest or weed control at 35 g/ha: 0%
  pest or weed control at 70 g/ha: 0%
  pest or weed control at 140 g/ha: 0%
[5]
  pest or weed control at 17.5 g/ha: 0%
  pest or weed control at 35 g/ha: 0%
  pest or weed control at 70 g/ha: 0%
  pest or weed control at 140 g/ha: 0%
[6]
  pest or weed control at 17.5 g/ha: 70%
  pest or weed control at 35 g/ha: 85%
  pest or weed control at 70 g/ha: 90%
  pest or weed control at 140 g/ha: 100%
[7]
  pest or weed control at 17.5 g/ha: 30%
  pest or weed control at 35 g/ha: 60%
  pest or weed control at 70 g/ha: 70%
  pest or weed control at 140 g/ha: 80%
[8]
  pest or weed control at 17.5 g/ha: 0%
  pest or weed control at 35 g/ha: 0%
  pest or weed control at 70 g/ha: 0%
  pest or weed control at 140 g/ha: 20%
[9]
  pest or weed control at 17.5 g/ha: 0%
  pest or weed control at 35 g/ha: 0%
  pest or weed control at 70 g/ha: 0%
  pest or weed control at 140 g/ha: 20%
[10]
  pest or weed control at 17.5 g/ha: 20%
  pest or weed control at 35 g/ha: 40%
  pest or weed control at 70 g/ha: 95%
  pest or weed control at 140 g/ha: 100%
[11]
  pest or weed control at 17.5 g/ha: 0%
  pest or weed control at 35 g/ha: 0%
  pest or weed control at 70 g/ha: 0%
  pest or weed control at 140 g/ha: 0%

## Nc1c(F)c(-c2ccc(Cl)c3c2OC(F)(F)O3)nc(C(=O)O)c1Cl [Compound 14]
[1]
  pest or weed control at 17.5 g/ha: 3%
  pest or weed control at 35 g/ha: 3%
  pest or weed control at 70 g/ha: 8%
  pest or weed control at 140 g/ha: 13%
[2]
  pest or weed control at 17.5 g/ha: 78%
  pest or weed control at 35 g/ha: 83%
  pest or weed control at 70 g/ha: 85%
  pest or weed control at 140 g/ha: 90%
[3]
  pest or weed control at 17.5 g/ha: 0%
  pest or weed control at 35 g/ha: 0%
  pest or weed control at 70 g/ha: 0%
  pest or weed control at 140 g/ha: 5%
[4]
  pest or weed control at 17.5 g/ha: 0%
  pest or weed control at 35 g/ha: 0%
  pest or weed control at 70 g/ha: 0%
  pest or weed control at 140 g/ha: 10%
[5]
  pest or weed control at 17.5 g/ha: 0%
  pest or weed control at 35 g/ha: 10%
  pest or weed control at 70 g/ha: 30%
  pest or weed control at 140 g/ha: 50%
[6]
  pest or weed control at 17.5 g/ha: 43%
  pest or weed control at 35 g/ha: 53%
  pest or weed control at 70 g/ha: 73%
  pest or weed control at 140 g/ha: 80%
[7]
  pest or weed control at 17.5 g/ha: 5%
  pest or weed control at 35 g/ha: 13%
  pest or weed control at 70 g/ha: 43%
  pest or weed control at 140 g/ha: 58%
[8]
  pest or weed control at 17.5 g/ha: 0%
  pest or weed control at 35 g/ha: 0%
  pest or weed control at 70 g/ha: 0%
  pest or weed control at 140 g/ha: 0%
[9]
  pest or weed control at 17.5 g/ha: 0%
  pest or weed control at 35 g/ha: 3%
  pest or weed control at 70 g/ha: 13%
  pest or weed control at 140 g/ha: 30%
[10]
  pest or weed control at 17.5 g/ha: 90%
  pest or weed control at 35 g/ha: 95%
  pest or weed control at 70 g/ha: 98%
  pest or weed control at 140 g/ha: 100%
[11]
  pest or weed control at 17.5 g/ha: 0%
  pest or weed control at 35 g/ha: 0%
  pest or weed control at 70 g/ha: 0%
  pest or weed control at 140 g/ha: 5%
